Results reported in patent US6653354B2, “NMDA antagonist comprising xenon” (priority 1999, dated 2003).
“Also recorded” adds a separate entry of the source.

How the values were obtained:
[1] = test system: cortical neuronal-glial co-culture injured with NMDA; assay: NMDA-induced neuronal injury in neuronal-glial co-culture (LDH release); format: cell-based, mouse
Procedure: (§1) Dissociated murine cortical cell cultures were prepared using whole cerebral neocortices from fetal mice (14-17 days of gestation). Cortical glial cell cultures were prepared from early postnatal mice. After halting non-neuronal cell division with cytosine arabinoside the surviving cortical neuronal cells were plated onto the glial cell background and co-cultured.
15 days after originally harvesting the foetal cortical cells, the co-culture plates were exposed at room temperature to N-methyl,D-aspartate (NMDA), 10-1,000 μM, in a control salt solution (CCS) for 10 minutes. After carefully washing out with CCS, the cells were incubated for 6-24 hours in a Eagle's minimal essential medium free of glutamate or lactate dehydrogenase (LDH) but supplemented with glucose 25 mM, and NaHCO3 38 mM at 37° C. in humidified CO2 (5%) atmosphere. The degree of injury was determined by measuring the LDH released into the medium. A dose-response curve of NMDA-induced injury is shown in FIG. 10, as described hereinbefore.
75% of one atmosphere of xenon was delivered to the cells during and after exposure to a 750 μM NMDA, a concentration which produces a near maximal injury. The degree of injury was determined by measuring the LDH released into the medium (after correcting for “baseline” LDH release). Xenon reduced the injury produced by NMDA by more than 30%; when xenon was continued after NMDA exposure, the injury was further reduced by more than 55%. The results of the protective effect of xenon are illustrated in FIG. 12, as described hereinbefore.

[2] = test system: co-culture injured by oxygen/glucose or oxygen deprivation; assay: Oxygen/glucose or oxygen deprivation injury in co-culture (LDH release); format: cell-based, mouse; details: 75 min replacement of O2 with N2; xenon replacing N2
Procedure: Anoxia was performed on a co-culture by a 75 min replacement of O2 with N2. The xenon and N2 concentrations were changed reciprocally such that their aggregate was 95% of one atmosphere (5% CO2 in either group). After 24 h the culture medium was harvested and assayed for LDH. Data are expressed as the % mean±SD (n=3) of LDH released into the medium over the 24 h period normalised to LDH release when N2 alone is present.
as §1

NMDA receptors = format: cell-based, rat; details: 80% xenon
[3] = test system: neurons of arcuate nucleus of hypothalamus; assay: NMA-induced neuron injury in the arcuate nucleus (neuroprotection in vivo); set-up: species or system Sprague Dawley female adult rats; details: 75% Xe + NMA 100 mg/kg s.c.
Procedure: It can be seen that NMA caused neuronal degeneration and vacuoulated swelling in the neuropil giving a spongiform appearance in the arcuate nucleus (E). The degenerated neuron has a pyknotic nucleus, which look like “bulls' eyes” because of oedematous swelling of the cytoplasmic compartment.
Rats were injected with NMA (100 mg/kg) sc and sacrificed 4 hours later after exposure to air (“NMA”; n=7) or xenon 75% (“75% xenon+NMA”; n=8). (For comparison the effect of MK801, the NMDA antagonist, is also shown). The arcuate nucleus was removed and sectioned and stained with cresyl violet. Control animals (“PS”; n=6) had neither NMA nor xenon administered. Data are reflected as either the mean of three sections/animal (upper) or the sum (lower) of degenerated neurons in both arcuate nuclei.

rats [4] = details: cited from earlier work
rhesus monkeys = assay: MAC in rhesus monkeys; format: in vivo; details: 37° C.
Procedure: (§2) The gaseous concentration of xenon which prevents a response to a painful stimulus (i.e. MAC) appears to vary among species, being 71% atm in humans (Cullen SC et al, Anesthesiology 1969, 31:305-309), 98% atm in rhesus monkeys (Whitehurst S L et al, J. Neurosurg. Anesthesiol. 1994, 6:275-279) and 161% atm in rats (Koblin D D et al, Anesth. Analg. 1998, 87:419-424). When these values are converted to free aqueous concentrations at 37° C. (Franks N P et al, Br. J. Anaesth. 1993, 71:65-76; Franks N P et al, Anesthesiology, 1996, 84:716-720) using an Ostwald water/gas partition coefficient of 0.0887 (Weathersby P K et al, Undersea Biomed. Res. 1980, 7:277-296), the values obtained are 2.5 mM, 3.4 mM and 5.6 mM for humans, monkeys and rats respectively, with the average value being 3.8 mM. For the experiments described herein, performed at room temperature, the concentration of xenon present in the standard test solution was 3.4 mM. […] This is illustrated with representative traces in FIG. 2.

rats [5] = assay: MAC in rats; format: in vivo; details: 37° C.
Procedure: as §2

For [Xe] [xenon], the “protection against excitotoxicity (% of LDH released in the absence of xenon)” value ([1]; 250 μM NMDA for 10 minutes, low (sub-anaesthetic) concentrations of xenon, LDH after 6 hours) was “Highly significant protection”, the “excitotoxic injury (LDH release, normalised)” value ([1]; 250 μM NMDA, 75% xenon) was “greatly reduced” and the percentage of neuroprotection ([1]; 75% (atm.) xenon, after 6 hours, 10 minute exposure to 250 μM NMDA) was 60%. The “reduction of the injury produced by NMDA (LDH release)” value ([1]; 75% of one atmosphere xenon during exposure to 750 μM NMDA) was “more than 30%”, the “reduction of the injury produced by NMDA (LDH release)” value ([1]; 75% xenon continued after 750 μM NMDA exposure) was “more than 55%” and the “protection against injury induced by oxygen/glucose or oxygen alone deprivation (LDH release over 24 h)” value [2] was “dose-dependent protective effect”. The “change of NMDA EC50 or Hill coefficient in presence of xenon” value (NMDA receptors) was “no significant change; also recorded: does not significantly change”, the “NMA-induced neuronal injury (cresyl fast violet histology)” value [3] was “effective in reducing this injury” and the “gaseous concentration which prevents a response to a painful stimulus (MAC)” value (rats [4]) was 161 % atm. The “MAC converted to free aqueous concentration” value (rhesus monkeys) was 3.4 mM and the “MAC converted to free aqueous concentration” value (rats [5]) was 5.6 mM.
